# Results taken from US20100173832A1, “ANTICANCEROUS POLYMERIC AGENTS” (TECHNION RESEARCH & DEVELOPMENT FOUNDATION LTD., priority 2007, published 2010).
# Where two headings read alike, the source gives them in different places. Non-standard residues stand in square brackets, D forms with d. Residues, ends and D or L forms follow the SMILES beside them. *: point of attachment. Lauroyl = CCCCCCCCCCCC(=O)*; 12Ado = NCCCCCCCCCCCC(=O)O; Octanoyl = CCCCCCCC(=O)*; Aoc = NCCCCCCCC(=O)O
# Assays:
# [1] = tested on: TRAMP-C2 cell line; assay type: cell-based; settings: 24 hours incubation, XTT; read-out: Cancer LC50 Mouse prostate cancer TRAMP-C2
# Source text: Transgenic adenocarcinoma mouse prostate cells (TRAMP-C2);
# (§1) As a routine cancer cell killing assay for assessment of antitumor activity, 2,3-bis(2-methoxy-4-nitro-5-sulfophenyl)-2H-tetrazolium-5-carboxanilide inner salt (XTT) reduction assay was used, utilizing a commercial kit such as, for example, Cell Proliferation XTT Kit, Cat. No. 20-300-1000, Biological Industries Ltd., Kibbutz Beit Haemek, Israel. XTT is a tetrazolium salt which is cleaved to formazan colored compounds by the mitochondrial dehydrogenase enzymes indicating proper mitochondrial activity in intact cells.
# (§2) Thereafter, a series of increasing concentrations of the polymers were added. After another 24 hours of incubation, XTT reaction solution was added (50 μl of XTT per 100 μl of cell culture medium). The optical density of the cells was measured at 450 nm by ELISA plate reader after 2-4 hours XTT incubation. Cell viability was determined relative to a control having no polymer added thereto.
# “Mouse prostate cancer TRAMP-C2” represents the lethal concentration in μM as measured against TRAMP-C2 cell line, measured as described hereinabove in the cell proliferation XTT assay (column 5 in Table 3);
# [2] = tested on: MCF-7 cell line; assay type: cell-based; settings: 24 hours incubation, XTT; read-out: Cancer LC50 Human breast cancer MCF-7
# Experimental: Human breast adenocarcinoma cells (MCF-7);
# Thereafter, a series of increasing concentrations of the polymers were added. […] The optical density of the cells was measured at 450 nm by ELISA plate reader after 2-4 hours XTT incubation. Cell viability was determined relative to a control having no polymer added thereto.
# [3] = tested on: N-417 cell line; assay: XTT cell viability assay, N-417 cells; assay type: cell-based; settings: 24 hours incubation, XTT; read-out: Cancer LC50 Human small-cell lung carcinoma N-417
# Source text: Variant small cell lung cancer cells (N-417, SCLC);
# as §1, §2
# “Human breast cancer MCF-7” represents the lethal concentration in μM as measured against MCF-7 cell line, measured as described hereinabove in the cell proliferation XTT assay (column 6 in Table 3); “Human small-cell lung carcinoma N-417” represents the lethal concentration in μM as measured against N-417 cell line, measured as described hereinabove in the cell proliferation XTT assay (column 7 in Table 3);
# [4] = XTT cell viability assay, non-cancerous cardiac fibroblasts (CF); assay type: cell-based, rat
# Source text: Primary non-cancerous rat cardiac fibroblasts (CF);
# as §1, §2
# “Rat primary cardiac fibroblast CF” represents the lethal concentration in μM as measured against CF cell line, measured as described hereinabove in the cell proliferation XTT assay (column 8 in Table 3);
# [5] = primary cardiac fibroblasts (CF), primary non-cancerous rat cardiac fibroblasts, XTT assay, read-out: CF lethal concentration
Compound,"CC50 at 24 h [4, 5] [µM]",further results
CCCCCCCC(=O)N[C@@H](CCCCN)C(=O)N[C@@H](CCCCN)C(=O)NCCCCCCCCCCCC(=O)N[C@@H](CCCCN)C(=O)N[C@@H](CCCCN)C(=O)NCCCCCCCCCCCC(=O)N[C@@H](CCCCN)C(N)=O [C8K(KNC12K)2NH2] (Octanoyl-KK[12Ado]KK[12Ado]K-NH2),,"CC50 [1]: > 16 µM; CC50 [2]: 20 ± 1 µM; CC50 [3]: > 16 µM; CC50 at 24 h ([4]; rat, primary non-cancerous cardiac fibroblasts (CF), 24 hours incubation, XTT, non-cancerous cells, read-out: Cancer LC50 Rat primary cardiac fibroblast CF): > 50 µM"
NCCCCCCCCCCCC(=O)N[C@@H](CCCCN)C(=O)NCCCCCCCCCCCC(=O)N[C@@H](CCCCN)C(=O)NCCCCCCCCCCCC(=O)N[C@@H](CCCCN)C(=O)NCCCCCCCCCCCC(=O)N[C@@H](CCCCN)C(=O)NCCCCCCCCCCCC(=O)N[C@@H](CCCCN)C(N)=O [(NC12K)5NH2],> 16,
CCCCCCCCCCCC(=O)N[C@@H](CCCCN)C(=O)NCCCCCCCC(=O)N[C@@H](CCCCN)C(N)=O [C12(KNC8K)NH2],< 16,
NCCCCCCCCCCCC(=O)N[C@@H](CCCCN)C(=O)NCCCCCCCCCCCC(=O)N[C@@H](CCCCN)C(=O)O [(NC12K)2],> 16,
NCCCCCCCCCCCC(=O)N[C@@H](CCCCN)C(=O)NCCCCCCCCCCCC(=O)N[C@@H](CCCCN)C(=O)NCCCCCCCCCCCC(=O)N[C@@H](CCCCN)C(=O)O [(NC12K)3],> 16,
NCCCCCCCCCCCC(=O)N[C@@H](CCCCN)C(=O)NCCCCCCCCCCCC(=O)N[C@@H](CCCCN)C(=O)NCCCCCCCCCCCC(=O)N[C@@H](CCCCN)C(=O)NCCCCCCCCCCCC(=O)N[C@@H](CCCCN)C(=O)NCCCCCCCCCCCC(=O)N[C@@H](CCCCN)C(=O)NCCCCCCCCCCCC(=O)N[C@@H](CCCCN)C(=O)NCCCCCCCCCCCC(=O)N[C@@H](CCCCN)C(=O)NCCCCCCCCCCCC(=O)N[C@@H](CCCCN)C(N)=O [(NC12K)8NH2],> 16,
NCCCC[C@H](NC(=O)CCCCCCCCCCCNC(=O)[C@H](CCCCN)NC(=O)CCCCCCCCCCCNC(=O)[C@H](CCCCN)NC(=O)CCCCCCCCCCCNC(=O)[C@H](CCCCN)NC(=O)CCCCCCCCCCCNC(=O)[C@H](CCCCN)NC(=O)CCCCCCCCCCCNC(=O)[C@@H](N)CCCCN)C(N)=O [K(NC12K)5NH2],> 16,
NCCCC[C@H](NC(=O)CCCCCCCCCCCNC(=O)[C@H](CCCCN)NC(=O)CCCCCCCCCCCNC(=O)[C@H](CCCCN)NC(=O)CCCCCCCCCCCNC(=O)[C@H](CCCCN)NC(=O)CCCCCCCCCCCNC(=O)[C@H](CCCCN)NC(=O)CCCCCCCCCCCNC(=O)[C@H](CCCCN)NC(=O)CCCCCCCCCCCNC(=O)[C@H](CCCCN)NC(=O)CCCCCCCCCCCNC(=O)[C@@H](N)CCCCN)C(N)=O [K(NC12K)7NH2],> 16,
NCCCC[C@H](NC(=O)CCCCCCCCCCCNC(=O)[C@H](CCCCN)NC(=O)CCCCCCCCCCCNC(=O)[C@H](CCCCN)NC(=O)CCCCCCCCCCCNC(=O)[C@H](CCCCN)NC(=O)CCCCCCCCCCCNC(=O)[C@@H](N)CCCCN)C(N)=O [K(NC12K)4NH2],50,
CCCCCCCCCCCC(=O)N[C@@H](CCCCN)C(=O)NCCCCCCCC(=O)N[C@@H](CCCCN)C(=O)N[C@@H](CCCCN)C(=O)NCCCCCCCC(=O)N[C@@H](CCCCN)C(N)=O [C12(KNC8K)2NH2] (Lauroyl-K[Aoc]KK[Aoc]K-NH2),< 16,
NCCCCCCCCCCCC(=O)N[C@@H](CCCCN)C(=O)NCCCCCCCCCCCC(=O)N[C@@H](CCCCN)C(=O)NCCCCCCCCCCCC(=O)N[C@@H](CCCCN)C(N)=O [(NC12K)3NH2],> 16,
CCCCCCCCCCCC(=O)N[C@@H](CCCCN)C(=O)NCCCCCCCCCCCC(=O)N[C@@H](CCCCN)C(=O)O [C12KNC12K],> 16,
NCCCC[C@H](NC(=O)CCCCCCCCCCCNC(=O)[C@H](CCCCN)NC(=O)CCCCCCCCCCCNC(=O)[C@H](CCCCN)NC(=O)CCCCCCCCCCCNC(=O)[C@@H](N)CCCCN)C(N)=O [K(NC12K)3NH2],> 16,
CCCCCCCCCCCC(=O)N[C@@H](CCCCN)C(=O)NCCCCCCCCCCCC(=O)N[C@@H](CCCCN)C(=O)NCCCCCCCCCCCC(=O)N[C@@H](CCCCN)C(=O)O [C12K(NC12K)2],> 16,
CCCCCCCCCCCC(=O)N[C@@H](CCCCN)C(=O)NCCCCCCCCCCCC(=O)N[C@@H](CCCCN)C(N)=O [C12KNC12KNH2],> 16,
CCCCCCCCCCCC(=O)N[C@@H](CCCCN)C(=O)NCCCCCCCCCCCC(=O)N[C@@H](CCCCN)C(=O)NCCCCCCCCCCCC(=O)N[C@@H](CCCCN)C(=O)NCCCCCCCCCCCC(=O)N[C@@H](CCCCN)C(=O)O [C12K(NC12K)3],> 16,

Compound,"CC50 at 24 h [4, 5] [µM]",further results
NCCCC[C@H](NC(=O)CCCCCCCCCCCNC(=O)[C@H](CCCCN)NC(=O)CCCCCCCCCCCNC(=O)[C@@H](N)CCCCN)C(=O)O [K(NC12K)2],> 16,
CCCCCCCCCCCC(=O)N[C@@H](CCCCN)C(=O)NCCCCCCCC(=O)N[C@@H](CCCCN)C(=O)N[C@@H](CCCCN)C(=O)NCCCCCCCC(=O)N[C@@H](CCCCN)C(=O)N[C@@H](CCCCN)C(=O)NCCCCCCCC(=O)N[C@@H](CCCCN)C(=O)N[C@@H](CCCCN)C(=O)NCCCCCCCC(=O)N[C@@H](CCCCN)C(N)=O [C12(KNC8K)4NH2] (Lauroyl-K[Aoc]KK[Aoc]KK[Aoc]KK[Aoc]K-NH2),< 16,
CCCCCCCCCCCC(=O)N[C@@H](CCCCN)C(=O)NCCCCCCCCCCCC(=O)N[C@@H](CCCCN)C(=O)NCCCCCCCCCCCC(=O)N[C@@H](CCCCN)C(=O)NCCCCCCCCCCCC(=O)N[C@@H](CCCCN)C(=O)NCCCCCCCCCCCC(=O)N[C@@H](CCCCN)C(N)=O [C12K(NC12K)4NH2],37 ± 2.12,
NCCCCCCCCCCCC(=O)N[C@@H](CCCCN)C(=O)NCCCCCCCCCCCC(=O)N[C@@H](CCCCN)C(=O)NCCCCCCCCCCCC(=O)N[C@@H](CCCCN)C(=O)NCCCCCCCCCCCC(=O)N[C@@H](CCCCN)C(=O)NCCCCCCCCCCCC(=O)N[C@@H](CCCCN)C(=O)NCCCCCCCCCCCC(=O)N[C@@H](CCCCN)C(N)=O [(NC12K)6NH2],> 16,
CCCCCCCCCCCC(=O)N[C@@H](CCCCN)C(=O)NCCCCCCCC(=O)N[C@@H](CCCCN)C(=O)N[C@@H](CCCCN)C(=O)NCCCCCCCC(=O)N[C@@H](CCCCN)C(=O)N[C@@H](CCCCN)C(=O)NCCCCCCCC(=O)N[C@@H](CCCCN)C(N)=O [C12(KNC8K)3NH2] (Lauroyl-K[Aoc]KK[Aoc]KK[Aoc]K-NH2),< 16,
NCCCCCCCCCCCC(=O)N[C@@H](CCCCN)C(=O)NCCCCCCCCCCCC(=O)N[C@@H](CCCCN)C(=O)NCCCCCCCCCCCC(=O)N[C@@H](CCCCN)C(=O)NCCCCCCCCCCCC(=O)N[C@@H](CCCCN)C(=O)NCCCCCCCCCCCC(=O)N[C@@H](CCCCN)C(=O)NCCCCCCCCCCCC(=O)N[C@@H](CCCCN)C(=O)NCCCCCCCCCCCC(=O)N[C@@H](CCCCN)C(N)=O [(NC12K)7NH2],> 16,
NCCCC[C@H](NC(=O)CCCCCCCCCCCNC(=O)[C@H](CCCCN)NC(=O)CCCCCCCCCCCNC(=O)[C@H](CCCCN)NC(=O)CCCCCCCCCCCNC(=O)[C@H](CCCCN)NC(=O)CCCCCCCCCCCNC(=O)[C@H](CCCCN)NC(=O)CCCCCCCCCCCNC(=O)[C@H](CCCCN)NC(=O)CCCCCCCCCCCNC(=O)[C@@H](N)CCCCN)C(N)=O [K(NC12K)6NH2],> 16,
CCCCCCCCCCCC(=O)N[C@@H](CCCCN)C(=O)NCCCCCCCCCCCC(=O)N[C@@H](CCCCN)C(=O)NCCCCCCCCCCCC(=O)N[C@@H](CCCCN)C(N)=O [C12K(NC12K)2NH2],> 16,
NCCCC[C@H](NC(=O)CCCCCCCCCCCNC(=O)[C@H](CCCCN)NC(=O)CCCCCCCCCCCNC(=O)[C@@H](N)CCCCN)C(N)=O [K(NC12K)2NH2],> 16,
NCCCC[C@H](NC(=O)CCCCCCCCCCCNC(=O)[C@@H](N)CCCCN)C(=O)O [KNC12K],> 16,
NCCCCCCCCCCCC(=O)N[C@@H](CCCCN)C(=O)NCCCCCCCCCCCC(=O)N[C@@H](CCCCN)C(N)=O [(NC12K)2NH2],> 16,
NCCCC[C@H](NC(=O)CCCCCCCCCCCNC(=O)[C@H](CCCCN)NC(=O)CCCCCCCCCCCNC(=O)[C@H](CCCCN)NC(=O)CCCCCCCCCCCNC(=O)[C@@H](N)CCCCN)C(=O)O [K(NC12K)3],> 16,
NCCCCCCCCCCCC(=O)N[C@@H](CCCCN)C(=O)NCCCCCCCCCCCC(=O)N[C@@H](CCCCN)C(=O)NCCCCCCCCCCCC(=O)N[C@@H](CCCCN)C(=O)NCCCCCCCCCCCC(=O)N[C@@H](CCCCN)C(=O)O [(NC12K)4],> 16,
CCCCCCCCCCCC(=O)N[C@@H](CCCCN)C(=O)NCCCCCCCCCCCC(=O)N[C@@H](CCCCN)C(=O)NCCCCCCCCCCCC(=O)N[C@@H](CCCCN)C(=O)NCCCCCCCCCCCC(=O)N[C@@H](CCCCN)C(N)=O [C12K(NC12K)3NH2],> 16,
NCCCC[C@H](NC(=O)CCCCCCCCCCCNC(=O)[C@@H](N)CCCCN)C(N)=O [KNC12KNH2],> 16,
